Results taken from patent US10517863B2, “Trilobine and its natural analogs for use as a drug” (PIERRE FABRE MEDICAMENT, priority 2015, dated 2019).

What was measured:
[1] = system: luciferase reporter under the control of a methylated CMV promoter in leukemia KG-1 cells; assay: CMV-luc reexpression (luciferase reporter) in KG-1 cells; type: cell-based, human; details: for Reactivation fold of luciferase gene reporter in KG-1 CMV-Luc: 24 hour incubation, fold induction vs DMSO, mean ± standard error
Procedure: Aiming at identifying new DNMT inhibitors, plant extract samples were tested for their ability to reactivate gene expression upon use of an integrated luciferase reporter system under the control of a methylated CMV promoter in leukemia KG-1 cells which inhibits its expression (CMV-luc assay reported in following Table). […] The extract was fractionated by preparative HPLC. Identification of the active components was accomplished by HRMS and NMR spectroscopy. The pure compounds isolated from the extract through bio-guided fractionation are trilobine and bisbenzylisoquinoline analogue products. The active compounds were then further evaluated for their ability to inhibit DNMTs in vitro and DNA methylation in cancer cells.
KG-1 cells were stably transfected with the firefly luciferase reporter gene (luc+ from pGL3; Promega) under the control of the cytomegalovirus (CMV) promoter (from pEGFP-N1; Clontech Laboratories Inc.) partially methylated (50%). 20,000 cells per well were seeded in a 96-well plate. After 24 hour incubation in the presence of the test compound or solvant (DMSO), the induction of the promoter was measured by quantification of the luciferase signal with the Brite-lite assay system (PerkinElmer) according to the manufacturer's protocol. The luminescence was measured on an EnVision multilabel plate reader (PerkinElmer), and the data are expressed as the fold induction as compared with the DMSO control. The mean of three experiments and the standard error is reported.

[2] = system: CMV promoter in KG-1 Luc cells; assay: CMV promoter analysis by NOMe-Seq: DNA methylation and nucleosome occupancy; type: cell-based, human; details: at 5 μM, 24 h
Procedure: Using the Nucleosome Occupancy and Methylome Sequencing (NOMe-Seq) technique, the methylation status of the CMV promoter and the position of the nucleosomes on such promoter were both analysed.
NOMe-seq is a modified version of the methylation-dependent single promoter assay described by Miranda et al. (Curr Protoc Mol Biol. 2010 21.17.1-16) and the methylase-based DNA assay was performed as previously described with minor modifications (Hochedlinger K, Plath K 2009; Sharma et al. 2010, You et al. 2011, Kelly et al. 2012). After nuclei extraction, GpC methyltransferase (M.CviPI; New England Biolabs) reactions were done in M.CviPI reaction buffer. GpC methyltransferase treatment was followed by DNA extraction, sodium bisulfite conversion, PCR amplification of the region of interest, cloning, and sequencing of individual clones to reveal the structure of single replicas as functional units. After treatment with the compounds or with DMSO, KG-1 Luc cells were centrifuged for 5 min at 500×g. Cell pellets were washed in ice-cold PBS, resuspended in 1 mL of ice-cold nuclei buffer [10 mM Tris (pH 7.4), 10 mM NaCl, 3 mM MgCl2, 0.1 mM EDTA, and 0.5% Nonidet P-40, plus protease inhibitors] per 2×10^6 cells, and incubated on ice for 10 min. […]

COc1ccc2cc1Oc1ccc(cc1)C[C@@H]1NCCc3cc(OC)c4c(c31)Oc1cc3c(cc1O4)CCN(C)[C@H]3C2 [Compound 1, Trilobine]
Reactivation fold of luciferase gene reporter in KG-1 CMV-Luc ([1]; 0.1 μM): 1.1 ± 0.1 fold
Reactivation fold of luciferase gene reporter in KG-1 CMV-Luc ([1]; 0.32 μM): 1.9 ± 1.2 fold
Reactivation fold of luciferase gene reporter in KG-1 CMV-Luc ([1]; 0.5 μM): 1.6 ± 0.8 fold
Reactivation fold of luciferase gene reporter in KG-1 CMV-Luc ([1]; 1 μM): 2.6 ± 1.4 fold
Reactivation fold of luciferase gene reporter in KG-1 CMV-Luc ([1]; 3.2 μM): 3.5 ± 1.1 fold
Reactivation fold of luciferase gene reporter in KG-1 CMV-Luc ([1]; 5 μM): 6.4 ± 0.1 fold
FI-24 h, KG1 CMV-Luc model ([1]; at 5 μM, 24 h): 5.8 ± 0.6
Chromatin accessibility, KG1 CMV-Luc model [2]: 1.9 ± 0.1
DNA demethylation, KG1 CMV-Luc model [2]: −37 ± 8%
